# Data published in patent US20230151049A1, “Compounds Useful in HIV Therapy” (priority 2020, published 2023).
# Like-named read-outs stand apart in the source and are kept apart here.
# Assay: in vivo
# Conditions: for concentration at 1 day / concentration at 7 day / concentration at 14 day / concentration at 21 day / concentration at 28 day / concentration at 35 day / concentration at 42 day / concentration at 49 day / concentration at 56 day / concentration at 63 day / concentration at 70 day / concentration at 77 day / concentration at 84 day: male, Wistar Han, rat, in vivo
# In short: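 Three male Wistar Han rats (200-250 g), not fasted, received a single intramuscular gastrocnemius injection of prodrug suspension at 20 mg/kg EFdA equivalent. Tail-vein blood was taken into NaF/Na2EDTA, mixed 1:1 with 100 mM ammonium acetate pH 4, frozen, and analysed by LC-MS/MS.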
structure (smiles),measurement,setting,value
"C#C[C@]1(COP(=O)(N[C@@H](Cc2ccccc2)C(=O)OCCCCCCCCCCCCCCCCC)Oc2ccccc2)O[C@@H](n2cnc3c(N)nc(F)nc32)C[C@@H]1O (single isomer, unassigned) [Example 20A]",Mean concentration of EFdA,"day 77, single IM Example 20A 57 mg/kg","BQL (BQL = below quantification limit, 0.3 ng/mL for Example 20A and 0.1-0.3 ng/mL for EFdA)"
same,Mean concentration of EFdA,"day 84, single IM Example 20A 57 mg/kg","BQL (BQL = below quantification limit, 0.3 ng/mL for Example 20A and 0.1-0.3 ng/mL for EFdA)"
same,concentration at 1 day,"day 1, single IM Example 20A 57 mg/kg, read-out: Mean concentration of Example 20A",15.3 ng/mL
same,concentration at 7 day,"day 7, single IM Example 20A 57 mg/kg, read-out: Mean concentration of Example 20A",14.6 ng/mL
same,concentration at 14 day,"day 14, single IM Example 20A 57 mg/kg, read-out: Mean concentration of Example 20A",13.8 ng/mL
same,concentration at 21 day,"day 21, single IM Example 20A 57 mg/kg, read-out: Mean concentration of Example 20A",9.76 ng/mL
same,concentration at 28 day,"day 28, single IM Example 20A 57 mg/kg, read-out: Mean concentration of Example 20A",8.45 ng/mL
same,concentration at 35 day,"day 35, single IM Example 20A 57 mg/kg, read-out: Mean concentration of Example 20A",13.3 ng/mL
same,concentration at 42 day,"day 42, single IM Example 20A 57 mg/kg, read-out: Mean concentration of Example 20A",5.27 ng/mL
same,concentration at 49 day,"day 49, single IM Example 20A 57 mg/kg, read-out: Mean concentration of Example 20A",4.25 ng/mL
same,concentration at 56 day,"day 56, single IM Example 20A 57 mg/kg, read-out: Mean concentration of Example 20A",3.2 ng/mL
same,concentration at 63 day,"day 63, single IM Example 20A 57 mg/kg, read-out: Mean concentration of Example 20A",4.84 ng/mL
same,concentration at 70 day,"day 70, single IM Example 20A 57 mg/kg, read-out: Mean concentration of Example 20A",2.74 ng/mL
same,concentration at 77 day,"day 77, single IM Example 20A 57 mg/kg, read-out: Mean concentration of Example 20A",4 ng/mL
same,concentration at 84 day,"day 84, single IM Example 20A 57 mg/kg, read-out: Mean concentration of Example 20A",3.32 ng/mL
"C#C[C@]1(COP(=O)(N[C@@H](Cc2ccccc2)C(=O)OC(CCCCCCCCCCC)CCCCCCCCCCC)Oc2ccccc2)O[C@@H](n2cnc3c(N)nc(F)nc32)C[C@@H]1O (single isomer, unassigned) [Example 26A]",Mean concentration of EFdA,"day 1, single IM Example 26A 63 mg/kg","BQL (BQL = below quantification limit, 0.3 ng/ml for both)"
same,Mean concentration of EFdA,"day 7, single IM Example 26A 63 mg/kg","BQL (BQL = below quantification limit, 0.3 ng/ml for both)"
same,Mean concentration of EFdA,"day 14, single IM Example 26A 63 mg/kg","BQL (BQL = below quantification limit, 0.3 ng/ml for both)"
same,Mean concentration of EFdA,"day 21, single IM Example 26A 63 mg/kg","BQL (BQL = below quantification limit, 0.3 ng/ml for both)"
same,Mean concentration of EFdA,"day 28, single IM Example 26A 63 mg/kg","BQL (BQL = below quantification limit, 0.3 ng/ml for both)"
same,Mean concentration of EFdA,"day 35, single IM Example 26A 63 mg/kg","BQL (BQL = below quantification limit, 0.3 ng/ml for both)"
same,Mean concentration of EFdA,"day 42, single IM Example 26A 63 mg/kg","BQL (BQL = below quantification limit, 0.3 ng/ml for both)"
same,Mean concentration of EFdA,"day 49, single IM Example 26A 63 mg/kg","BQL (BQL = below quantification limit, 0.3 ng/ml for both)"
same,Mean concentration of EFdA,"day 56, single IM Example 26A 63 mg/kg","BQL (BQL = below quantification limit, 0.3 ng/ml for both)"
same,Mean concentration of EFdA,"day 63, single IM Example 26A 63 mg/kg","BQL (BQL = below quantification limit, 0.3 ng/ml for both)"
same,Mean concentration of EFdA,"day 70, single IM Example 26A 63 mg/kg","BQL (BQL = below quantification limit, 0.3 ng/ml for both)"
same,Mean concentration of EFdA,"day 77, single IM Example 26A 63 mg/kg","BQL (BQL = below quantification limit, 0.3 ng/ml for both)"
same,Mean concentration of EFdA,"day 84, single IM Example 26A 63 mg/kg","BQL (BQL = below quantification limit, 0.3 ng/ml for both)"
same,concentration at 1 day,"day 1, single IM 63 mg/kg, read-out: Mean concentration of Example 26A",72.7 ng/mL
same,concentration at 7 day,"day 7, single IM 63 mg/kg, read-out: Mean concentration of Example 26A",37.6 ng/mL
same,concentration at 14 day,"day 14, single IM 63 mg/kg, read-out: Mean concentration of Example 26A",33.8 ng/mL
same,concentration at 21 day,"day 21, single IM 63 mg/kg, read-out: Mean concentration of Example 26A",22.9 ng/mL
same,concentration at 28 day,"day 28, single IM 63 mg/kg, read-out: Mean concentration of Example 26A",18.5 ng/mL
same,concentration at 35 day,"day 35, single IM 63 mg/kg, read-out: Mean concentration of Example 26A",14.4 ng/mL
same,concentration at 42 day,"day 42, single IM 63 mg/kg, read-out: Mean concentration of Example 26A",11.1 ng/mL
same,concentration at 49 day,"day 49, single IM 63 mg/kg, read-out: Mean concentration of Example 26A",9.62 ng/mL
same,concentration at 56 day,"day 56, single IM 63 mg/kg, read-out: Mean concentration of Example 26A",9.8 ng/mL
same,concentration at 63 day,"day 63, single IM 63 mg/kg, read-out: Mean concentration of Example 26A",11.5 ng/mL
same,concentration at 70 day,"day 70, single IM 63 mg/kg, read-out: Mean concentration of Example 26A",9.95 ng/mL
same,concentration at 77 day,"day 77, single IM 63 mg/kg, read-out: Mean concentration of Example 26A",9.69 ng/mL
same,concentration at 84 day,"day 84, single IM 63 mg/kg, read-out: Mean concentration of Example 26A",7.43 ng/mL
"C#C[C@]1(COP(=O)(N[C@@H](C)C(=O)OC(CCCCCCCCCC)CCCCCCCCCC)Oc2ccccc2)O[C@@H](n2cnc3c(N)nc(F)nc32)C[C@@H]1O (single isomer, unassigned) [Example 37A]",Mean concentration of EFdA,"day 21, single IM Example 37A 56 mg/kg","BQL (BQL = below quantification limit, 0.3 ng/ml for both)"
same,Mean concentration of EFdA,"day 28, single IM Example 37A 56 mg/kg","BQL (BQL = below quantification limit, 0.3 ng/ml for both)"
same,Mean concentration of EFdA,"day 35, single IM Example 37A 56 mg/kg","BQL (BQL = below quantification limit, 0.3 ng/ml for both)"
same,Mean concentration of EFdA,"day 42, single IM Example 37A 56 mg/kg","BQL (BQL = below quantification limit, 0.3 ng/ml for both)"
same,Mean concentration of EFdA,"day 49, single IM Example 37A 56 mg/kg","BQL (BQL = below quantification limit, 0.3 ng/ml for both)"
same,Mean concentration of EFdA,"day 56, single IM Example 37A 56 mg/kg","BQL (BQL = below quantification limit, 0.3 ng/ml for both)"
same,Mean concentration of EFdA,"day 63, single IM Example 37A 56 mg/kg","BQL (BQL = below quantification limit, 0.3 ng/ml for both)"
same,Mean concentration of EFdA,"day 70, single IM Example 37A 56 mg/kg","BQL (BQL = below quantification limit, 0.3 ng/ml for both)"
same,Mean concentration of EFdA,"day 77, single IM Example 37A 56 mg/kg","BQL (BQL = below quantification limit, 0.3 ng/ml for both)"
same,Mean concentration of EFdA,"day 84, single IM Example 37A 56 mg/kg","BQL (BQL = below quantification limit, 0.3 ng/ml for both)"
same,concentration at 1 day,"day 1, single IM Example 37A 56 mg/kg, read-out: Mean concentration of Example 37A",17.9 ng/mL
same,concentration at 7 day,"day 7, single IM Example 37A 56 mg/kg, read-out: Mean concentration of Example 37A",3.58 ng/mL
same,concentration at 14 day,"day 14, single IM Example 37A 56 mg/kg, read-out: Mean concentration of Example 37A",3.8 ng/mL
same,concentration at 21 day,"day 21, single IM Example 37A 56 mg/kg, read-out: Mean concentration of Example 37A",5.16 ng/mL
same,concentration at 28 day,"day 28, single IM Example 37A 56 mg/kg, read-out: Mean concentration of Example 37A",4.16 ng/mL
same,concentration at 35 day,"day 35, single IM Example 37A 56 mg/kg, read-out: Mean concentration of Example 37A",4.95 ng/mL
same,concentration at 42 day,"day 42, single IM Example 37A 56 mg/kg, read-out: Mean concentration of Example 37A",5.29 ng/mL
same,concentration at 49 day,"day 49, single IM Example 37A 56 mg/kg, read-out: Mean concentration of Example 37A",4.89 ng/mL
same,concentration at 56 day,"day 56, single IM Example 37A 56 mg/kg, read-out: Mean concentration of Example 37A",4.94 ng/mL
same,concentration at 63 day,"day 63, single IM Example 37A 56 mg/kg, read-out: Mean concentration of Example 37A",4.46 ng/mL
same,concentration at 70 day,"day 70, single IM Example 37A 56 mg/kg, read-out: Mean concentration of Example 37A",3.78 ng/mL
same,concentration at 77 day,"day 77, single IM Example 37A 56 mg/kg, read-out: Mean concentration of Example 37A",3.46 ng/mL
same,concentration at 84 day,"day 84, single IM Example 37A 56 mg/kg, read-out: Mean concentration of Example 37A",3.32 ng/mL
